# Assay results published in patent publication US6495594B2, “Biologically active analogs of discodermolide” (Harbor Branch Oceanographic Institution, Inc., priority 2000, dated 2002).
# “Also recorded” adds a separate entry of the source.
# Legend:
# Format in all cases: cell-based
# [1] = system: A549 human adenocarcinoma; assay: In vitro proliferation of A549 cells (MTT); settings: 72 hours exposure; for IC50: value in parentheses
# Procedure: (§1) Discodermolide and discodermolide analogs were analyzed as to their effects on proliferation of A549 human adenocarcinoma and P388 murine leukemia cell lines. P388 cells were obtained from Dr. R. Camalier, National Cancer Institute, Bethesda, MD, and A549 cells were obtained from American Type Culture Collection, Rockville, MD. All cell lines were maintained in tissue culture medium (TCM; Roswell Park Memorial Institute RPMI 1640 supplemented with 100 U/mL penicillin, […], 60 […], 18 mM HEPES, 0.05 mg/mL gentamicin (Life Technologies, Gaithersburg, MD) and 10% fetal bovine serum) and cultured in plastic tissue culture flasks at 37° C. in humidified air containing 5% CO2. Stock cultures of P388 cells were subcultured 1:20 in fresh TCM every 2 to 3 days. Stock cultures of A549 cells were subcultured 1:10 every 3 to 4 days. To assess the antiproliferative effects of agents against the cells, 200 μL cultures (96-well tissue culture plates, Nunc, Denmark) were established at 1 ×10^5 cells/mL in TCM or TCM containing the test agent at 0.03-5.0 μg/mL. After 48-h exposures, P388 cells were enumerated using 3-[4,5-dimethylthiazol-2-yl]-2,5-diphenyltetrazolium bromide (MTT) as described in the literature (M. C. Alley, et al., Cancer Res. 48:589, 1988). A549 cells were enumerated in the same manner after 72 hours exposure. The results were expressed as percent inhibition compared to the negative (no drug) control. Positive drug controls of varying dilutions of 5-fluorouracil and adriamycin (Sigma Chemical Co., St Louis, MO) were included to monitor drug sensitivity of the cell line.
# (§2) To quantitate the effects on cell proliferation and resulting IC50 values, 75 μL of warm growth media containing 5 mg/mL MTT is added to each well, cultures returned to the incubator, and left undisturbed for 3 hours. To spectrophotometrically quantitate formation of reduced formazan, plates are centrifuged (500×g, 10 minutes), culture fluids removed by aspiration, and 200 μL of acidified isopropanol (2 mL concentrated HCl /liter isopropanol) added per well. The absorbance of the resulting solutions is measured in a plate reader (TECAN Spectra SLT; TECAN U.S., Research Triangle Park, N.C.) at 570 nm and a 650 nm reference filter. The absorbance of test wells is divided by the absorbance of drug-free wells, and the concentration of agent that results in 50% of the absorbance of untreated cultures (IC50) is determined by linear regression of logit-transformed data (D. J. Finney, Statistical Method in Biological Assay, third ed., pp. 316-348, Charles Griffin Co., London, 1978). A linear relationship between tumor cell number and formazan production has been routinely observed over the range of cell densities observed in these experiments. The two standard drug controls (indicated above) are included in each assay as a check to monitor the drug sensitivity of each of the cell lines and IC50 values are determined for each drug-cell combination.
# A549 human lung cells = assay: Cell cycle progression by flow cytometry
# Procedure: Cell cycle studies were initiated in order to pinpoint a specific phase within the cell cycle in which discodermolide analogs were exerting their antiproliferative effect. A549 human lung cells were used as cell cycle targets to compare the effects of discodermolide and discodermolide analogs on perturbation of the cell cycle. Cell cycle analyses were performed as follows: A549 cells were incubated at 37° C. in 5% CO2 in air in the presence or absence of varying concentrations of discodermolide or discodermolide analogs for 24 hr. Cells were harvested, fixed in ethanol, washed, and stained with 0.02 mg/mL of propidium iodide (P.I.) together with 0.1 mg/mL of RNAse A. Stained preparations were analyzed on a Coulter EPICS ELITE flow cytometer with 488 nm excitation. Fluorescence measurements and resulting DNA histograms were collected from at least 10,000 P.I. stained cells at an emission wavelength of 690 nm. Raw histogram data was further analyzed using a cell cycle analysis program (Multicycle, Phoenix Flow Systems).
# [2] = system: P388 murine leukemia cell lines; assay: In vitro proliferation of P388 cells (MTT); settings: 48-h exposure; for IC50: value in parentheses
# Procedure: as §1, §2
Structure (SMILES),IC50 A549 cells [1],IC50 [1],Cell cycle effects (A549 human lung cells; concentration not given),IC50 P388 cells [2],IC50 [2],"Cell population accumulated in the G2/M phase (A549 human lung cells; 1000 nM, 24 hour incubation)",Cell cycle effects (A549 human lung cells; concentrations lower than 1000 nM),"Cell cycle effects (100 nM) (A549 human lung cells; 100 nM, 24 hr, A549)"
"C=CC=CC(C)C(O)C(C)C(O)C(C)CC(C)=CC(C)C(O)C(C)C=CC(O)CC1OC(=O)C(C)C(O)C1C (centres unmarked) [19-Desaminocarbonyldiscodermolide (III), 19-desaminocarbonyldiscodermolide]",0.045 µg/mL,74 nM,Strong apoptosis; moderate G2/M block,0.07 µg/mL,128 nM,–,–,–
"CCCCC(C)C(OC(N)=O)C(C)C(O)C(C)CC(C)=CC(C)C(O)C(C)CCCCC1OC(=O)C(C)C(O)C1C (centres unmarked) [7-deoxy-8,21,23-hexahydrodiscodermolide]",0.22 µg/mL,377 nM,–,0.18 µg/mL,309 nM,Approximately 50%,did not produce any cell cycle effects,–
"C=CC=CC(C)C(OC(N)=O)C(C)C(O)C(C)CC(C)=CC(C)C(O)C(C)C=CC(O)CC1OC(=O)CC(O)C1C (centres unmarked) [2-Desmethyldiscodermolide (II), 2-desmethyldiscodermolide]",0.07 µg/mL,120 nM,very strong apoptotic (sub-G1 peak) effects as well as an increase in the percentage of cells residing in the G2/M phase,0.1 µg/mL,172 nM,–,–,–
"C=C/C=C\[C@H](C)[C@H](OC(N)=O)[C@@H](C)[C@H](O)[C@@H](C)C/C(C)=C\[C@H](C)[C@@H](O)[C@@H](C)/C=C\[C@@H](O)C[C@@H]1OC(=O)[C@@H](C)[C@@H](O)[C@H]1C [2-Epidiscodermolide (IV), 2-epidiscodermolide]",0.04 µg/mL,67 nM,Apoptosis and weak G2/M block,0.08 µg/mL,134 nM,–,–,–
"CCCCC(C)C(OC(N)=O)C(C)C(O)C(C)CC(C)=CC(C)C(O)C(C)CCC(O)CC1OC(=O)C(C)C(O)C1C (centres unmarked) [8,21,23-Hexahydrodiscodermolide (XII), 8,21,23-hexahydrodiscodermolide]",0.04 µg/mL,67.7 nM,–,0.02 µg/mL,33.8 nM,–,–,small percent increase in the cells accumulated at the G2/M phase; also recorded: high percentage of apoptosis
